Data as given in US11491109B2, “Pharmaceutical compositions for basic or neutral, low molecular weight compounds” (Hoffmann-La Roche Inc., priority 2017, dated 2022).
≈ marks a conversion by molar mass, not a printed value. Where “and” joins values, the source holds several entries; their conditions need not be identical. Equal values may be shown once. Read-outs that look alike come from different tables or passages of the source.

Key:
Assay type in all cases: physicochemical
[1] = pKa via photometric titration (Roche internal data); conditions: measured via photometric titration; basic model compounds
[2] = Drug solubility in water (aqueous solubility); conditions: thermodynamic from solid
[3] = Equilibrium solubility in EPO-solutions, 96-well SORESOS assay; conditions: for Adjusted SE in EPO 0.1% / Adjusted SE in EPO 0.5% / Adjusted SE in EPO 1.0% / Adjusted SE in EPO 2.0% / Adjusted SE in EPO 3.0% / Adjusted SE in EPO 4.0% / Adjusted SE in EPO 5.0%: vs adjusted solubility in water at pH 6.0; for Non-adjusted SE in EPO 0.1% (in brackets) / Non-adjusted SE in EPO 0.5% (in brackets) / Non-adjusted SE in EPO 1.0% (in brackets) / Non-adjusted SE in EPO 2.0% (in brackets) / Non-adjusted SE in EPO 3.0% (in brackets) / Non-adjusted SE in EPO 4.0% (in brackets) / Non-adjusted SE in EPO 5.0% (in brackets): vs measured solubility in water; for course of solubility with polymer concentration: EPO 0.1-5%
Method: Polymer solutions were prepared by dissolving EPO (0.1%, 0.5%, 1%, 2%, 3%, 4%, 5% (w/w)) in deionized water and adjusting all solutions to pH 6.0 by hydrochloric acid and sodium hydroxide at 25° C. Solutions were checked carefully for absence of particles.
(§1) Solubility of compounds in EPO-solutions was determined by using a 96-well assay that was introduced to measure equilibrium solubility in parallel to a solid state analysis of the residual solid (SORESOS)^21 as described before.^22 In brief, APIs were dispensed using the powder-picking-method^23 in a 96-well flat bottom plate (Corning Inc., Durham, USA). Mixtures were agitated by head-over-head rotation for 48 h at room temperature after addition of stir bars and polymer solutions (150 μl). After mixing, the suspensions were carefully transferred into 96-well filter plates and the liquid and solid phase were separated by centrifugation. […] An isocratic flow (composition of the mobile phase is listed in Table 2) was applied for 0.3 min at a flow rate of 0.75 mL/min. […] Solid state analysis of residual solid was performed by X-ray powder diffraction (XRPD) using a STOE Stadi P Combi diffractometer with a primary Ge-monochromator (Cu Kα radiation), imaging plate position sensitive detector (IP-PSD), and a 96-well sample stage as described before.^21 The IP-PSD allowed simultaneous recording of the diffraction pattern on both sides of the primary beam which were summed up by the software STOE WinXPOW to reduce effects related to poor crystal orientation statistics. Samples were analyzed directly in the 96-well filter plate with an exposure time of 5 min per well.
as §1, with “After addition of stir bars and polymer solutions (150 μl), mixtures” for “Mixtures”, “temperature.” for “temperature after addition of stir bars and polymer solutions (150 μl).”, “7)” for “2)”

[4] = pH of drug suspensions in water and in EPO-solutions; conditions: EPO 0.5%, 2%, and 5%; solutions started at pH 6.0
Method: All excipient solutions were adjusted to pH 6.0 before incubation and following equilibration, the residual solid was analyzed by means of XRPD. […] This extrapolation method was based on the Henderson-Hasselbalch equation and it is generally reliable when the experimental solubility value is within one pH unit difference.^25

[5] = 24 h incubation, pH not adjusted, read-out: Solubility in water (standard deviation, n = 3)
[6] = extrapolated to pH 6.0 by Henderson-Hasselbalch equation, read-out: Adjusted solubility at pH 6.0

SMILES	pKa [1]	solubility at 24 h [2, 5] [µg/mL]	solubility at 24 h [2, 6] [µg/mL]	Adjusted SE in EPO 0.1% [3]	Non-adjusted SE in EPO 0.1% (in brackets) [3]	Adjusted SE in EPO 0.5% [3]	Non-adjusted SE in EPO 0.5% (in brackets) [3]	Adjusted SE in EPO 1.0% [3]	Non-adjusted SE in EPO 1.0% (in brackets) [3]	Adjusted SE in EPO 2.0% [3]	Non-adjusted SE in EPO 2.0% (in brackets) [3]	Adjusted SE in EPO 3.0% [3]	Non-adjusted SE in EPO 3.0% (in brackets) [3]	Adjusted SE in EPO 4.0% [3]	Non-adjusted SE in EPO 4.0% (in brackets) [3]	Adjusted SE in EPO 5.0% [3]	Non-adjusted SE in EPO 5.0% (in brackets) [3]	course of solubility with polymer concentration ([3]; 48 h, room temperature)	other results
C(=C\c1ccccc1)/CN1CCN(C(c2ccccc2)c2ccccc2)CC1 [CNZ, Cinnarizine]	7.8	1 (≈ 2.71 µM)	1 (≈ 2.71 µM)	2.7 (2.7)	2.7 (2.7)	10.3 (10.3)	10.3 (10.3)	15.3 (15.3)	15.3 (15.3)	29.3 (29.3)	29.3 (29.3)	37.3 (37.3)	37.3 (37.3)	39.0 (39.0)	39.0 (39.0)	37.0 (37.0)	37.0 (37.0)	–	–
COc1ccccc1OCCNCC(O)COc1cccc2[nH]c3ccccc3c12 (stereo not drawn) [CVD, carvedilol]	8.1	–	71 (≈ 175 µM)	1.7	24.3	6.7	94.9	6.9	–	10.7	152.3	11.1	157.4	10.6	150.9	11.7	165.9	–	EPO concentration at which solubility reached a plateau ([3]; 48 h, room temperature): 2 % EPO (w/w)
CCOC(=O)C1=C(C)NC(C)=C(C(=O)OC)C1c1cccc(Cl)c1Cl (stereo not drawn) [FLP, felodipine]	–	–	–	–	–	–	–	–	–	–	–	–	–	–	–	–	–	increase of solubility with polymer concentration up to 5% EPO	solubility ([2]; neutral model compounds, n = 3): 0.4 µg/mL (≈ 1.04 µM)
COC1=CC(=O)C[C@@H](C)[C@]12Oc1c(Cl)c(OC)cc(OC)c1C2=O [GFN, griseofulvin]	–	–	–	–	–	–	–	–	–	–	–	–	–	–	–	–	–	solubility decreased again and finally reached a kind of plateau	EPO concentration of maximum solubility ([3]; 48 h, room temperature): 2 % EPO (w/w)
OC(c1cc(C(F)(F)F)nc2c(C(F)(F)F)cccc12)C1CCCCN1 (stereo not drawn) [MFQ, mefloquine]	9.2	63 (≈ 167 µM)	2450 (≈ 6470 µM)	0.2	7.2	1.0	37.3	1.5	58.3	2.4	–	3.6	141.5	4.4	172.5	4.8	186.2	increase of solubility with polymer concentration up to 5% EPO	solubility at 48 h ([3]; aqueous EPO polymer solution, pH 6, aqueous with cosolvent or surfactant or cyclodextrin, thermodynamic from solid, EPO 5%, 48 h, room temperature): 12 mg/mL (≈ 31700 µM); pH after 48 h in EPO [4]: 6.3 and 6.4
O=c1[nH]c2ccccc2n1C1CCN(CCCC(c2ccc(F)cc2)c2ccc(F)cc2)CC1 [PMZ, Pimozide]	8.6	2 (≈ 4.33 µM)	13 (≈ 28.2 µM)	2.0	12.8	5.4	35.3	5.0	32.3	6.9	45.0	8.5	55.2	9.3	60.2	9.8	63.8	increase of solubility with polymer concentration up to 5% EPO	–
CC(C)(C)c1ccc(C(O)CCCN2CCC(C(O)(c3ccccc3)c3ccccc3)CC2)cc1 (stereo not drawn) [TFD, terfenadine]	9.1	2 (≈ 4.24 µM)	13 (≈ 27.6 µM)	2.5	16.0	6.6	43.2	8.3	54.0	11.7	76.2	15.3	99.3	14.6	94.8	14.0	91.2	–	EPO concentration at which solubility reached a plateau ([3]; 48 h, room temperature): 2 % EPO (w/w)
CC/C(=C(\c1ccccc1)c1ccc(OCCN(C)C)cc1)c1ccccc1 [TMX, tamoxifen]	9.7	–	–	–	–	–	–	–	–	–	–	–	–	–	–	–	–	–	–
